Assay results published in patent US12617756B2 (ABIVAX, priority 2019, dated 2026).

Tested on: RSV A2
Assay: Screening for RSV inhibition using Viral ToxGlo assay (cytopathic effect inhibition in HEp-2 cells)
Assay type: cell-based, Respiratory Syncytial Virus (RSV)
Details: human respiratory syncytial virus; RSV A2 in HEp-2 cells, MOI 0.5, 72h p.i., cytopathic effect inhibition relative to virus control, Viral ToxGlo luminescence
Protocol: Protocol for Screening Antiviral Compounds for RSV Inhibition and Cytotoxicity Using Viral ToxGlo Assay
HEp-2 cells were maintained in Eagle's minimum essential medium (EMEM) with Earle's BSS adjusted to contain 2 mM L-glutamine, 10% fetal bovine serum, 100 U/ml penicillin and 100 µg/ml streptomycin. For the purposes of the screening assay they were grown to 90% confluency, trypsinized and recovered. The trypsin was neutralised with cell culture media and cells were centrifuged at 150×g for 5 minutes before discarding the supernatant and resuspending cell pellet in assay media (EMEM with Earle's BSS adjusted to contain 2 mM L-glutamine, 2% fetal bovine serum and 100 U/ml penicillin and 100 µg/ml streptomycin). The cells were seeded into white clear-bottomed cell culture plates at a density of 1.5×10^4 cells/well in 50 μl and 4×10^3 cells/well in 25 μl for 96 well plates and 384 well plates respectively. For the media/background control column assay media only was added. Cell plates were placed in a humid chamber and incubated overnight at 37° C./5% CO2. After overnight incubation cells were checked for confluency and healthy appearance.
Test articles were made up at 10× test concentration in a maximum DMSO concentration of 10% (final assay concentration maximal 1% DMSO) and added to the cell plates in volumes of […] for 96 well plates and 5 μl for 384 well plates. For cell control and virus control wells the test article solvent only was added. Virus or assay media for cytotoxicity test wells and media/cell control wells was added immediately after test articles at an MOI of […] for 96 and 384 well plates respectively. Virus suspension was prepared by thawing RSV A2 frozen stocks and diluting to the required concentration of plaque forming units in assay media on ice.
Cell plates were further incubated inside a humid chamber for 72h p.i at 37° C./5% CO2. After the incubation period cells were observed under the microscope to check for characteristic cytopathic effect in virus control wells and healthy cells in the cell control wells. After plates were adjusted to room temperature 20/40 μl Viral ToxGlo (Promega) was added to each well of the 384/96 well cell plates. Plates were incubated at room temperature, protected from light on a plate rocker for 20 minutes before measuring the luminescence on a spectrophotometer (Biotek Synergy HTX).

Question: `CC(C)(C)c1cc(C(=O)N=C2NCCN2)ccc1Nc1cccc(C(=O)NCCC2CCOCC2)c1` [Compound 39, 3-tert-butyl-N-[(2E)-imidazolidin-2-ylidene]-4-[(3-{[2-(oxan-4-yl)ethyl]carbamoyl}phenyl)amino]benzamide] was tested. Which EC50 did it give?
Answer: The EC50 was 66.2 nM.

Question: How did the EC50 turn out when `Cc1c(C(=O)NCCC(C)C)ccnc1Nc1ccc(C(=O)N=C2NCCN2)cc1C1CC1` [Compound 40, 2-[(2-cyclopropyl-4-{[(2E)-imidazolidin-2-ylidene]carbamoyl}phenyl)amino]-3-methyl-N-(3-methylbutyl)pyridine-4-carboxamide] was run?
Answer: Its EC50 is 69.2 nM.

Question: `O=C1CN/C(=N\C(=O)c2ccc(Nc3cccc(OCCCC4CCCCC4)c3)c(C3CC3)c2)N1` [Compound 41, 4-{[3-(3-cyclohexylpropoxy)phenyl]amino}-3-cyclopropyl-N-[(2E)-4-oxoimidazolidin-2-ylidene]benzamide] was tested. Which EC50 did it give?
Answer: Its EC50 is 77.2 nM.

Question: With `O=C(N=C1NCCN1)c1ccc(Nc2cccc(C(=O)N3CCOCC3)c2C2CC2)c(C(F)(F)F)c1` [Compound 42, 4-{[2-cyclopropyl-3-(morpholine-4-carbonyl)phenyl]amino}-N-[(2Z)-imidazolidin-2-ylidene]-3-(trifluoromethyl)benzamide] as the compound, how does the EC50 read?
Answer: The EC50 was 78.4 nM.

Question: How did the EC50 turn out when `CC(C)NC(=O)c1cccc(Nc2ccc(C(=O)/N=C3\NCCN3C3CC3)cc2C2CC2)c1` [Compound 43, 3-cyclopropyl-N-[(2E)-1-cyclopropylimidazolidin-2-ylidene]-4-({3-[(propan-2-yl)carbamoyl]phenyl}amino)benzamide] was run?
Answer: The EC50 was 79.8 nM.

Question: With `CC(C)CCNC(=O)c1cccc(Nc2ccc(C(=O)N=C3NCCN3)cc2C(C)(C)O)c1` [Compound 44, 3-(2-hydroxypropan-2-yl)-N-[(2E)-imidazolidin-2-ylidene]-4-({3-[(3-methylbutyl)carbamoyl]phenyl}amino)benzamide] as the compound, how does the EC50 read?
Answer: The EC50 was 90.4 nM.

Question: How did the EC50 turn out when `CC(C)(O)c1cc(C(=O)N=C2NCCN2)ccc1Nc1cccc(C(=O)N2CCOCC2)c1Cl` [Compound 45, 4-{[2-chloro-3-(morpholine-4-carbonyl)phenyl]amino}-3-(2-hydroxypropan-2-yl)-N-(imidazolidin-2-ylidene)benzamide] was run?
Answer: Its EC50 is 91.5 nM.

Question: Which EC50 does the source give for `CC(=O)N1CCN/C1=N\C(=O)c1ccc(Nc2cccc(OCCCC3CCCCC3)c2)c(C2CC2)c1` [Compound 46, N-[(2E)-1-acetylimidazolidin-2-ylidene]-4-{[3-(3-cyclohexylpropoxy)phenyl]amino}-3-cyclopropylbenzamide] here?
Answer: The EC50 was 104 nM.

Question: Which EC50 does the source give for `CC1(NC(=O)c2cc(F)cc(Nc3ccc(C(=O)N=C4NCCN4)cc3C3CC3)c2)CC1` [Compound 47, 3-cyclopropyl-4-({3-fluoro-5-[(1-methylcyclopropyl)carbamoyl]phenyl}amino)-N-[(2Z)-imidazolidin-2-ylidene]benzamide] here?
Answer: Its EC50 is 113 nM.

Question: With `CC(C)(C)c1cc(C(=O)N=C2NCCN2)ccc1Nc1cccc(C(=O)NCCC2CCOC2)c1` (centres unmarked) [Compound 48, 3-tert-butyl-N-[(2E)-imidazolidin-2-ylidene]-4-[(3-{[2-(oxolan-3-yl)ethyl]carbamoyl}phenyl)amino]benzamide] as the compound, how does the EC50 read?
Answer: Its EC50 is 117 nM.

Question: For `CC(C)NC(=O)c1cccc(Nc2ccc(C(=O)/N=C3\NCC(=O)N3)cc2C(C)(C)C)c1` [Compound 49, 3-tert-butyl-N-[(2E)-4-oxoimidazolidin-2-ylidene]-4-({3-[(propan-2-yl)carbamoyl]phenyl}amino)benzamide], which EC50 is on record?
Answer: Its EC50 is 118 nM.

Question: For `O=C(N=C1NCCN1)c1ccc(Nc2cccc(C(=O)NC3CCOCC3)c2Cl)c(C2CC2)c1` [Compound 50, 4-({2-chloro-3-[(oxan-4-yl)carbamoyl]phenyl}amino)-3-cyclopropyl-N-[(2E)-imidazolidin-2-ylidene]benzamide], which EC50 is on record?
Answer: The EC50 was 136 nM.

Question: Which EC50 does the source give for `O=C(N=C1NCCN1)c1ccc(Nc2cccc(OCC3COCCO3)c2)c(C2CCCC2)c1` (centres unmarked) [Compound 51, 3-cyclopentyl-4-({3-[(1,4-dioxan-2-yl)methoxy]phenyl}amino)-N-[(2E)-imidazolidin-2-ylidene]benzamide] here?
Answer: The EC50 was 140 nM.

Question: How did the EC50 turn out when `CC(C)(C)c1cc(C(=O)N=C2NCCN2)ccc1Nc1cccc(OCC2COCCO2)c1` (centres unmarked) [Compound 52, 3-tert-butyl-4-({3-[(1,4-dioxan-2-yl)methoxy]phenyl}amino)-N-[(2E)-imidazolidin-2-ylidene]benzamide] was run?
Answer: Its EC50 is 142 nM.

Question: With `O=C(N=C1NCCN1)c1ccc(Nc2cccc(C(=O)NC3(C(F)(F)F)CC3)c2)c(C2CC2)c1` [Compound 53, 3-cyclopropyl-N-[(2Z)-imidazolidin-2-ylidene]-4-[(3-{[1-(trifluoromethyl)cyclopropyl]carbamoyl}phenyl)amino]benzamide] as the compound, how does the EC50 read?
Answer: The EC50 was 153 nM.

Question: For `CC(C)NC(=O)c1ccccc1Nc1ccc(C(=O)N=C2NCCN2)cc1C(C)(C)C` [Compound 54, 3-tert-butyl-N-[(2E)-imidazolidin-2-ylidene]-4-({2-[(propan-2-yl)carbamoyl]phenyl}amino)benzamide], which EC50 is on record?
Answer: The EC50 was 166 nM.

Question: How did the EC50 turn out when `CC(C)CCNC(=O)c1ccnc(Nc2ccc(C(=O)N=C3NCCN3)cc2C(C)(C)C)c1` [Compound 55, 2-[(2-tert-butyl-4-{[(2E)-imidazolidin-2-ylidene]carbamoyl}phenyl)amino]-N-(3-methylbutyl)pyridine-4-carboxamide] was run?
Answer: The EC50 was 168 nM.

Question: For `CC(C)CNC(=O)c1ccccc1Nc1ccc(C(=O)N=C2NCCN2)cc1C(C)(C)C` [Compound 56, 3-tert-butyl-N-[(2E)-imidazolidin-2-ylidene]-4-({2-[(2-methylpropyl)carbamoyl]phenyl}amino)benzamide], which EC50 is on record?
Answer: The EC50 was 174 nM.

Question: How did the EC50 turn out when `Cc1c(Nc2ccc(C(=O)N=C3NCCN3)cc2C2CC2)cccc1-c1ncc(Cl)[nH]1` [Compound 57, 4-{[3-(5-chloro-1H-imidazol-2-yl)-2-methylphenyl]amino}-3-cyclopropyl-N-[(2Z)-imidazolidin-2-ylidene]benzamide] was run?
Answer: The EC50 was 200 nM.

Question: With `O=C(N=C1NCCN1)c1ccc(Nc2cccc(C(=O)NCCC3CCOCC3)c2)c(C2CC2)c1` [Compound 58, 3-cyclopropyl-N-[(2E)-imidazolidin-2-ylidene]-4-[(3-{[2-(oxan-4-yl)ethyl]carbamoyl}phenyl)amino]benzamide] as the compound, how does the EC50 read?
Answer: Its EC50 is 207 nM.

Question: How did the EC50 turn out when `CC(C)NC(=O)c1cccc(Nc2ccc(C(=O)N=C3NCCN3)cc2C2CCOC2)c1` (centres unmarked) [Compound 59, N-[(2E)-imidazolidin-2-ylidene]-3-(oxolan-3-yl)-4-({3-[(propan-2-yl)carbamoyl]phenyl}amino)benzamide] was run?
Answer: Its EC50 is 237 nM.

Question: For `CC(C)=CCn1nnnc1-c1cccc(Nc2ccc(C(=O)N=C3NCCN3)cc2C2CC2)c1` [Compound 60, 3-cyclopropyl-N-[(2Z)-imidazolidin-2-ylidene]-4-({3-[1-(3-methylbut-2-en-1-yl)-1H-1,2,3,4-tetrazol-5-yl]phenyl}amino)benzamide], which EC50 is on record?
Answer: Its EC50 is 241 nM.

Question: How did the EC50 turn out when `CC(C)NC(=O)c1cccc(Nc2ccc(C(=O)/N=C3\NCC(=O)N3C)cc2C2CC2)c1` [Compound 61, 3-cyclopropyl-N-[(2E)-1-methyl-5-oxoimidazolidin-2-ylidene]-4-({3-[(propan-2-yl)carbamoyl]phenyl}amino)benzamide] was run?
Answer: The EC50 was 516 nM.

Question: `CC(C)CCNC(=O)c1ccccc1Nc1ccc(C(=O)N=C2NCCN2)cc1C1CC1` [Compound 62, 3-cyclopropyl-N-[(2E)-imidazolidin-2-ylidene]-4-({2-[(3-methylbutyl)carbamoyl]phenyl}amino)benzamide] was tested. Which EC50 did it give?
Answer: The EC50 was 641 nM.

Question: `CC(C)C(=O)Nc1cccc(Nc2ccc(C(=O)N=C3NCCN3)cc2C2CCOC2)c1` (centres unmarked) [Compound 63, N-[(2E)-imidazolidin-2-ylidene]-4-{[3-(2-methylpropanamido)phenyl]amino}-3-(oxolan-3-yl)benzamide] was tested. Which EC50 did it give?
Answer: The EC50 was 727 nM.

Question: How did the EC50 turn out when `Cc1c(Nc2ccc(C(=O)N=C3NCCN3)cc2C2CC2)cccc1C(=O)NC1(C#N)CC1` [Compound 64, 4-({3-[(1-cyanocyclopropyl)carbamoyl]-2-methylphenyl}amino)-3-cyclopropyl-N-[(2Z)-imidazolidin-2-ylidene]benzamide] was run?
Answer: Its EC50 is 950 nM.

Question: `CC(C)NC(=O)c1cccc(Nc2ccc(C(=O)N=C3NCCN3)cc2C2CCOCC2)c1` [Compound 69, N-[(2Z)-imidazolidin-2-ylidene]-3-(oxan-4-yl)-4-({3-[(propan-2-yl)carbamoyl]phenyl}amino)benzamide] was tested. Which EC50 did it give?
Answer: Its EC50 is 1130 nM.

Question: How did the EC50 turn out when `CC(C)NC(=O)c1ccccc1Nc1ccc(C(=O)N=C2NCCN2)cc1C1CC1` [Compound 70, 3-cyclopropyl-N-[(2E)-imidazolidin-2-ylidene]-4-({2-[(propan-2-yl)carbamoyl]phenyl}amino)benzamide] was run?
Answer: Its EC50 is 1150 nM.

Question: For `CC(C)NC(=O)c1cccc(Nc2ccc(C(=O)N=C3N(C)CCN3C)cc2C(C)(C)C)c1` [Compound 71, 3-tert-butyl-N-[(2Z)-1,3-dimethylimidazolidin-2-ylidene]-4-({3-[(propan-2-yl)carbamoyl]phenyl}amino)benzamide], which EC50 is on record?
Answer: The EC50 was 1170 nM.
